Data taken from article PMC3006138, “Fexinidazole – A New Oral Nitroimidazole Drug Candidate Entering Clinical Development for the Treatment of Sleeping Sickness” (PLoS Neglected Tropical Diseases, 2010).
“And” between values parts separate entries of the source, which are not always exact repeats. Equal entries are not always repeated. One block for each compound: values may come before it.

Experiments:
[1] = tested on: T. b. gambiense (STIB 930); experiment: In vitro trypanocidal assay (Alamar Blue); format: cell-based, Trypanosoma brucei gambiense; settings: Trypanosoma brucei, 72 h; read-out: IC50
Description: Parasites were cultured with or without the test article at a concentration of 3×10^4/mL in Minimal Essential Medium, according to Baltz et al., with the following modifications: 0.2 mM 2-mercaptoethanol, 1 mM Na-pyruvate, 0.5 mM hypoxanthine and 15% heat inactivated horse serum at 37°C in 5% CO2 in 96-well microtitre plates for 72 h. 10 µL of Alamar Blue was added for the final 3 h to determine viability. The assay was assessed by reading the fluorescence in each well at an excitation wavelength of 536 nm and at an emission wavelength of 588 nm. The IC50 values were calculated from the sigmoidal inhibition curves. For cytotoxicity, 4×10^4/mL L-6 rat skeletal myoblast cells were used, and incubations and assessments carried out as above.

[2] = tested on: L-6 rat myoblast cells; experiment: Cytotoxicity assay; format: cell-based; settings: 72 h, read-out: IC50
Description: 10 µL of Alamar Blue was added for the final 3 h to determine viability. […] The IC50 values were calculated from the sigmoidal inhibition curves. For cytotoxicity, 4×10^4/mL L-6 rat skeletal myoblast cells were used, and incubations and assessments carried out as above.

[3] = tested on: rat hepatocytes; experiment: Hepatocyte intrinsic clearance and metabolite profile; format: in vitro ADME; settings: fexinidazole 10 µM
Description: (§1) Fexinidazole was incubated with cryopreserved hepatocytes from male CD-1 mice, male Sprague Dawley rats, male beagle dogs, male cynomolgus monkeys, and from pooled white or African-American human donor samples (purchased commercially), at concentrations of 1 µM and 10 µM. […] The incubated samples were analyzed by LC-MS after extraction into acetonitrile.
(§2) A quality control analysis of fexinidazole was performed via 1H-NMR in DMSO and LC- […]
(§3) provided by the Swiss Tropical Institute (Basel, Switzerland).
(§4) Reagents and solvents were of analytical grade and obtained from Sigma-Aldrich (St. Louis, […]
(§5) Cryopreserved hepatocytes from the male CD1 mouse, lot CSI; male Sprague Dawley rat, lot LPL; male beagle dog, lot BWX; male cynomolgus monkey, lot EHH; and pooled human samples, lot MJI, were purchased from In Vitro Technologies Inc (Baltimore, Maryland, […]
(§6) 5.4. In vitro Incubations
(§7) On the day of the experiment a 10 mM stock solution of fexinidazole in DMSO was prepared and, within 3 hours, aliquots of this freshly prepared solution, after suitable dilution, were added to the incubation matrix, to reach fexinidazole final concentrations of 1 and 10 µM. The final percentage of DMSO was 0.01% in the incubation samples for the […]
(§8) On the day of experiment, the cryopreserved hepatocytes were thawed following the detailed instructions provided by the supplier.
(§9) The number of viable cells was determined using a Trypan Blue exclusion method.
(§10) 5.4.1. Intrinsic Clearance Study […]
(§11) µM with mouse, rat, dog, monkey and human hepatocytes (300000 cells/mL for the mouse and 1 million cells/mL for the other species) in a final incubation volume of 0.75 mL […]
(§12) Incubations were performed in duplicate in a 48-well plate under shaking. Sampling was performed using an automatic liquid handling system (Multiprobe II EX, Packard). At 0, 1, 5, 10, 15, 20, 30, 60 and 120 minutes, 50 µL aliquots of the incubates were taken, then 80 µL of ice-cold acetonitrile and 20 µL of 1 µM warfarin in acetonitrile (internal standard) were added, and samples centrifuged at 2000 rpm for 20 min. The supernatant was analyzed by LC-MS/MS. […]
(§13) the medium alone at t = 0 and 120 minutes.
(§14) For the determination of phase I and phase II activity of hepatocytes, 7-ethoxycoumarin (7-EC) 1 µM, and 7-hydroxycoumarin (7-HC) 30 µM were used as positive controls and incubated under the same conditions as fexinidazole. Aliquots of incubates were taken at 0, 10, 20, 30, 60 and 120 minutes and processed as fexinidazole samples.
(§15) 5.4.2. Metabolite Profile Study
(§16) For metabolite profiling, fexinidazole was incubated at a concentration of 10 µM with mouse, rat, dog, monkey and human hepatocytes (300000 cells/mL for the mouse and 1 million cells/mL for the other species) in a final incubation volume of 2 mL Leibovitz L-15 […]
(§17) Aliquots of the incubation samples were taken at t = 0, 30 and 120 minutes; the metabolism was stopped by the addition of an equal volume of cold acetonitrile and the samples centrifuged at 1500 rpm for 20 min. The supernatant was stored at -20°C until analysis. Control incubations were performed with the compound in the medium alone […]
(§18) 5.5. Analysis of Samples for Intrinsic Clearance Determination
(§19) The analysis of the samples for intrinsic clearance determination was performed by an LC-MS/MS method, using the following conditions:
(§20) HPLC Equipment and Conditions
(§21) HPLC system Agilent 1100 binary pump (Agilent, Palo Alto, USA)
(§22) Autosampler CTC Pal (Alfatech, San Jose, USA)
(§23) Analytical column Guard Column SB-C8 4.6 x 12.5 mm, 5 µm (Zorbax)
(§24) Column temperature ambient
(§25) Mobile phase A 10 mM ammonium formate pH 4.0: acetonitrile (95:5, v:v)
(§26) Mobile phase B 10 mM ammonium formate pH 4.0: acetonitrile (5:95, v:v) […]
(§27) Gradient conditions Step Total time (min) flow (µL/min) %A % B […]
(§28) MS Equipment and Conditions
(§29) Mass spectrometer API 4000 Triple Quadrupole (MDS-Sciex, Toronto, […]
(§30) Source Turbo Ion Spray (TIS)
(§31) Ion mode Positive for fexinidazole and 7-EC.
(§32) Negative for 7-HC, 7-HC sulphate and 7-HC glucuronide.

[4] = tested on: human hepatocytes (pooled); experiment: as above; format: in vitro ADME; settings: for % of total drug related material: fexinidazole 10 µM
Description: as §1, §2, §3, §4, §5, §6, §7, §8, §9, §10, §11, §12, §13, §14, §15, §16, §17, §18, §19, §20, §21, §22, §23, §24, §25, §26, §27, §28, §29, §30, §31, §32

[5] = Dog 28-day toxicokinetics; format: in vivo; settings: both sexes, beagle, plasma, po
Description: In the dog repeated-dose toxicokinetic study, fexinidazole was given orally by gavage once a day for 28 days to five (control and high dose) or three (low and mid dose) beagle dogs/sex/dose at the doses of 0 (control group), 50, 200, or 800 mg/kg/day. The control group received the vehicle alone (same as above). Systemic exposure to fexinidazole and of its sulfoxide and sulfone metabolites was evaluated on days 1, 14 and 28 in the same animals used for the toxicological study. Samples were taken at predose, and 30 min, 1, 2, 4, 8 and 24 h after dosing on days 1, 14, and 28, and in addition at 48 and 72 h after treatment on day 28.

[6] = Mouse pharmacokinetics after 5-day oral dosing; settings: for AUC0-tlast / AUC0-∞: fexinidazole 200 mg/kg/day po, Day 5
[7] = 50 mg/kg/day, 50 mg/kg/day po, day 1
[8] = 50 mg/kg/day, 50 mg/kg/day po, day 1, read-out: AUC0-t(last)
[9] = 50 mg/kg/day, 50 mg/kg/day po, day 14
[10] = 50 mg/kg/day, 50 mg/kg/day po, day 14, read-out: AUC0-t(last)
[11] = 200 mg/kg/day, 200 mg/kg/day po, day 1
[12] = 200 mg/kg/day, 200 mg/kg/day po, day 1, read-out: AUC0-t(last)
[13] = 200 mg/kg/day, 200 mg/kg/day po, day 14
[14] = 200 mg/kg/day, 200 mg/kg/day po, day 14, read-out: AUC0-t(last)
[15] = 800 mg/kg/day, 800 mg/kg/day po, day 1
[16] = 800 mg/kg/day, 800 mg/kg/day po, day 1, read-out: AUC0-t(last)
[17] = 800 mg/kg/day, 800 mg/kg/day po, day 14
[18] = 800 mg/kg/day, 800 mg/kg/day po, day 14, read-out: AUC0-t(last)
[19] = male, NMRI, mouse, plasma, po, 200 mg/kg/day

SMILES: Cn1c([N+](=O)[O-])cnc1COc1ccc(S(C)(=O)=O)cc1 [Fexinidazole sulfone]
IC50 [1]: 0.16 µg/mL to 0.39 µg/mL and 480 nM to 1.25 µM
IC50 [2]: > 90 µg/mL and > 289 µM
% of total drug related material ([3]; 30 min): 10%
% of total drug related material ([3]; 120 min): 32%
% of total drug related material ([4]; 30 min): 2%
% of total drug related material ([4]; 120 min): 4%
Cmax [5, 7]: 8580 ± 2150 ng/mL
Tmax [5, 7]: 7.33 ± 1.63 h
AUC(0-t) [5, 8]: 146 ± 38.3 µg·h/mL
Cmax [5, 9]: 7780 ± 2890 ng/mL
Tmax [5, 9]: 5.33 ± 2.07 h
AUC(0-t) [5, 10]: 126 ± 59.1 µg·h/mL
Cmax [5, 11]: 17600 ± 2460 ng/mL
Tmax [5, 11]: 12.7 ± 8.91 h
AUC(0-t) [5, 12]: 348 ± 63.9 µg·h/mL
Cmax [5, 13]: 21800 ± 3860 ng/mL
Tmax [5, 13]: 5.33 ± 2.07 h
AUC(0-t) [5, 14]: 384 ± 49.9 µg·h/mL
Cmax [5, 15]: 36100 ± 7940 ng/mL
Tmax [5, 15]: 14.4 ± 8.26 h
AUC(0-t) [5, 16]: 660 ± 164 µg·h/mL
Cmax [5, 17]: 36600 ± 6240 ng/mL
Tmax [5, 17]: 6.8 ± 1.93 h
AUC(0-t) [5, 18]: 653 ± 118 µg·h/mL
AUC0-tlast [6]: 1050 µg·h/mL
AUC0-∞ [6]: 1060 µg·h/mL
Cmax [6, 19]: 77600 ng/mL
Tmax [6, 19]: 3 h
half-life [6, 19]: 2.75 h

% of total drug related material ([3]; 30 min): 90%
% of total drug related material ([3]; 120 min): 68%
% of total drug related material ([3]; t=0): 32%
% of total drug related material ([4]; 30 min): 96%
% of total drug related material ([4]; 120 min): 95%
% of total drug related material ([4]; t=0): 17%
AUC0-tlast [6]: 161 µg·h/mL
AUC0-∞ [6]: 197 µg·h/mL
Cmax [6, 19]: 33600 ng/mL
Tmax [6, 19]: 0.833 h
half-life [6, 19]: 4.31 h
SMILES: Cn1c([N+](=O)[O-])cnc1COc1ccc([S+](C)[O-])cc1 (centres unmarked) [Fexinidazole sulfoxide]
IC50 [1]: 0.18 µg/mL to 0.36 µg/mL and 610 nM to 1.22 µM
IC50 [2]: > 90 µg/mL and > 305 µM
Cmax [5, 7]: 3760 ± 970 ng/mL
Tmax [5, 7]: 1.17 ± 0.41 h
AUC(0-t) [5, 8]: 19.6 ± 5.68 µg·h/mL
Cmax [5, 9]: 2990 ± 980 ng/mL
Tmax [5, 9]: 1.33 ± 0.52 h
AUC(0-t) [5, 10]: 13.6 ± 5.99 µg·h/mL
Cmax [5, 11]: 8120 ± 2660 ng/mL
Tmax [5, 11]: 1.25 ± 0.61 h
AUC(0-t) [5, 12]: 51.4 ± 14.1 µg·h/mL
Cmax [5, 13]: 8990 ± 2830 ng/mL
Tmax [5, 13]: 2 h
AUC(0-t) [5, 14]: 56.7 ± 16.6 µg·h/mL
Cmax [5, 15]: 14500 ± 3950 ng/mL
Tmax [5, 15]: 1.55 ± 0.6 h
AUC(0-t) [5, 16]: 112 ± 31.8 µg·h/mL
Cmax [5, 17]: 13600 ± 4090 ng/mL
Tmax [5, 17]: 1.6 ± 0.97 h
AUC(0-t) [5, 18]: 129 ± 39.8 µg·h/mL

SMILES: CSc1ccc(OCc2ncc([N+](=O)[O-])n2C)cc1 [Fexinidazole, 1-methyl-2-((p-(methylthio)phenoxy)methyl)-5-nitroimidazole]
IC50 [1]: 0.16 µg/mL to 0.36 µg/mL and 580 nM to 1.29 µM
IC50 [2]: > 90 µg/mL and > 322 µM
% of total drug related material ([3]; t=0): 68%
t1/2 ([4]; 1 µM): 0.223 h
% of total drug related material ([4]; 30 min): 2%
% of total drug related material ([4]; 120 min): < 1%
% of total drug related material ([4]; t=0): 83%
Cmax [5, 7]: 40 ± 10 ng/mL
Tmax [5, 7]: 0.75 ± 0.61 h
AUC(0-t) [5, 8]: 0.19 ± 0.13 µg·h/mL
Cmax [5, 9]: 30 ± 10 ng/mL
Tmax [5, 9]: 1.08 ± 0.74 h
AUC(0-t) [5, 10]: 0.15 ± 0.13 µg·h/mL
Cmax [5, 11]: 70 ± 30 ng/mL
Tmax [5, 11]: 1 ± 0.55 h
AUC(0-t) [5, 12]: 0.44 ± 0.09 µg·h/mL
Cmax [5, 13]: 80 ± 10 ng/mL
Tmax [5, 13]: 1.5 ± 0.77 h
AUC(0-t) [5, 14]: 0.45 ± 0.14 µg·h/mL
Cmax [5, 15]: 140 ± 70 ng/mL
Tmax [5, 15]: 1.15 ± 0.47 h
AUC(0-t) [5, 16]: 0.84 ± 0.32 µg·h/mL
Cmax [5, 17]: 140 ± 50 ng/mL
Tmax [5, 17]: 1.2 ± 0.42 h
AUC(0-t) [5, 18]: 1.05 ± 0.3 µg·h/mL
AUC(0-t) [6, 19]: 1.53 ± 0.348 µg·h/mL
Cmax [6, 19]: 457 ± 179 ng/mL
Tmax [6, 19]: 0.833 ± 0.289 h
half-life [6, 19]: 2.76 ± 1.26 h
